Literature values, collected in US11931454B2, “Wet-packed soft hydrogel ocular inserts” (Alcon Inc., priority 2019, dated 2024).

Conditions: arylboronic acid group of the monomer

Compound	pKa
4-(1,6-Dioxo-2,5-diaza-7-oxamyl)phenylboronic acid	~7.8
C=Cc1ccc(CN(C)C)c(B(O)O)c1 [2-Dimethylaminomethyl-5-vinylphenylboronic acid]	< 7.8

Results, then the compound that gave them:

pKa	Compound
~8.2	3-(meth)acrylamidophenylboronic acid
~7.1	C=CCCS(=O)(=O)c1ccc(B(O)O)cc1 [4-(3-Butenylsulfonyl)phenylboronic acid]
~7.4	C=CCNS(=O)(=O)c1ccc(B(O)O)cc1 [4-(N-allylsulfamoyl)phenylboronic acid]
